Tests used:
Format in all cases: in vivo, cynomolgus macaques
IFN-α = IFN-α level in plasma after oral dosing, multiplexed immunoassay; settings: for Mean Concentration of IFN-α: oral; for IFN-α levels on the third day of the cycle: 3 on 4 off, 100 mg/kg, average±SEM, n=4
Procedure: (§1) The pharmacodynamic response of a continuous daily dosing schedule (QD) was compared to a cyclic dosing schedule of every-other-day (QOD) and a cyclic dosing schedule of 3 consecutive days of dosing followed by 4 consecutive days of resting (‘3 on 4 off’). All three dosing schedules were conducted with orally administered Compound I Tosylate. Immune parameters measured include cytokine and chemokine secretion in plasma measured by multiplexed immunoassay, neopterin levels in plasma measured by Enzyme Linked Immunosorbant Assay (ELISA), and cytotoxic T cell (CD8 T) effector proliferative state and B cell proliferative state in peripheral blood leukocytes as measured by flow cytometry analysis of Ki67 levels.
Cynomolgus macaques were given 10, 30, 100 or 300 mg/kg (Compound I equivalents) of Compound I Tosylate according to an every-other-day dosing schedule for 14 days, 28 days, or 13 weeks followed by recovery periods of various lengths. The immune response was determined by measuring cytokine and neopterin levels in plasma, as well as B cell and T cell responses in peripheral blood.
(§2) Cynomolgus macaques were given either 30 mg/kg or 100 mg/kg of Compound I as the tosylate according to a dosing schedule of 3 consecutive days of dosing followed by 4 consecutive days of resting (‘3 on 4 off’) over 3 or 8 weeks. The immune response was determined by measuring cytokine and neopterin levels in plasma, as well as B cell and T cell responses in peripheral blood.
(§3) Cynomolgus macaques were given either 30 mg/kg or 100 mg/kg of Compound I as the tosylate or 2 mg/kg 852A for 7 consecutive days of QD dosing followed by 7 days of additional monitoring. The immune response was determined by measuring cytokine and neopterin levels in plasma, as well as B cell and T cell responses in peripheral blood.

neopterin = assay: Neopterin level in plasma, ELISA; settings: QD schedule, 7 consecutive days, FIG. 1C (100 mg/kg)
Procedure: as §1, §3

[1] = system: cytotoxic T cell (CD8 T) in peripheral blood leukocytes; assay: Cytotoxic T cell (CD8 T) effector proliferative state, flow cytometry of Ki67; settings: 3 on 4 off schedule, FIG. 3B (100 mg/kg)
Procedure: as §1, §2

[2] = system: B cell in peripheral blood leukocytes; assay: B cell proliferative state, flow cytometry of Ki67; settings: 3 on 4 off schedule, repeated courses, FIG. 4B (100 mg/kg)
Procedure: as §1, §2

IL-6 = IL-6 in plasma after 3rd dose, multiplexed immunoassay; settings: after 3rd dose of 100 mg/kg
Source text: (§4) Each point indicates an individual animal. Fine lines indicate geometric mean. * indicates significant difference (p<0.05) between pre-treatment and post-dose values; ns: not significant. Non-responders are defined as animals with baseline interferon-α values after both the 1st and 2nd doses. Three such animals were excluded in the QOD group (n=7 final). No animals were excluded from the QD group (n=20 final).
as §1, with “All three dosing schedules were conducted with orally administered Compound I Tosylate.” left out, “levels. […]” for “levels.”
as §3

TNF-α = TNF-α in plasma after 3rd dose, multiplexed immunoassay; settings: after 3rd dose of 100 mg/kg, QD (D3) versus QOD (D5)
Source text: as §4
as §1, with “All three dosing schedules were conducted with orally administered Compound I Tosylate.” left out, “levels. […]” for “levels.”
as §3

IL-12 = IL-12 in plasma after 3rd dose, multiplexed immunoassay; settings: after 3rd dose of 100 mg/kg, pre-treatment subtracted, p<0.05
Source text: as §4
as §1, with “All three dosing schedules were conducted with orally administered Compound I Tosylate.” left out, “levels. […]” for “levels.”
as §3

MCP-1 = MCP-1 in plasma after 3rd dose, multiplexed immunoassay; settings: after 3rd dose of 100 mg/kg, pre-treatment subtracted, p<0.05
Source text: as §4
as §1, with “All three dosing schedules were conducted with orally administered Compound I Tosylate.” left out, “levels. […]” for “levels.”
as §3

[3] = QD schedule, 100 mg/kg per dose, p<0.05

`CC(=O)O[C@@H]1C[C@@H](CO)O[C@H]1n1c(=O)sc2cnc(N)nc21.Cc1ccc(S(=O)(=O)O)cc1` [Compound I Tosylate] was tested, and the “IFN-α level at day 7 for QOD higher than on day 7 for QD” value (IFN-α; 100 mg/kg per dose, p<0.05) was 15.8 fold, the “IFN-α levels in plasma after 6 doses” value (IFN-α; 3 on 4 off schedule, day 3 in the second cycle, 100 mg/kg (Compound I equivalents)) was 3832±1329 and the “IFN-α response on day 7 lower than response on day 1” value (IFN-α; QD schedule, 100 mg/kg per dose) was 3.3 fold. The “IFN-α levels on day 5 compared to day 3” value (IFN-α; [3]) was “significantly reduced”, the “IFN-α levels on day 7 compared to day 3” value (IFN-α; [3]) was “significantly reduced” and the “Time of peak IFN-α level before decline” value (IFN-α; QD schedule, 7 consecutive days, FIG. 1C (100 mg/kg)) was 3-4 days of dosing. For the same molecule, the “IFN-α levels in plasma after 6 doses” value (IFN-α; QD schedule, Day 6, 100 mg/kg (Compound I equivalents)) was 922±739, the “Time of peak neopterin level before decline” value (neopterin) was 3-4 days of dosing and the “T cell responses over repeated courses” value [1] was “either maintained or enhanced”. For the same molecule, the “B cell proliferative state as measured by Ki67 levels” value [2] was “enhanced”.
`CC(=O)O[C@@H]1C[C@@H](CO)O[C@H]1n1c(=O)sc2cnc(N)nc21` [Compound I, 5-amino-3-(2′-O-acetyl-3′-deoxy-beta-D-ribofuranosyl)-3H-thiazolo[4,5-d]pyrimidin-2-one] was tested, and the “Mean Concentration of IFN-α” value (IFN-α; 3 on 4 off schedule, Day 1, 100 mg/kg per dose as tosylate salt, 3 hours after dosing, mean ± SEM, pre-treatment subtracted) was 175 ± 69 pg/mL, the “Mean Concentration of IFN-α” value (IFN-α; 3 on 4 off schedule, Day 3, 100 mg/kg per dose as tosylate salt, 3 hours after dosing, mean ± SEM, pre-treatment subtracted) was 4192 ± 768 pg/mL and the “Mean Concentration of IFN-α” value (IFN-α; 3 on 4 off schedule, Day 5 (resting day, no dose), 100 mg/kg per dose as tosylate salt) was “Baseline*”. For the same molecule, the “Mean Concentration of IFN-α” value (IFN-α; 3 on 4 off schedule, Day 7 (resting day, no dose), 100 mg/kg per dose as tosylate salt) was “Baseline*”, the “IFN-α levels on the third day of the cycle” value (from here on “IFN-α levels on the third day”) (IFN-α; first cycle) was 4192±768 and the “IFN-α levels on the third day” value (IFN-α; second cycle) was 3832±1329. The “IFN-α levels on the third day” value (IFN-α; third cycle) was 3879±1140, the “Mean Concentration of IFN-α” value (IFN-α; QD schedule, Day 1, 100 mg/kg per dose as tosylate salt, 3 hours after dosing, mean ± SEM, pre-treatment subtracted) was 498 ± 252 pg/mL and the “Mean Concentration of IFN-α” value (IFN-α; QD schedule, Day 3, 100 mg/kg per dose as tosylate salt, 3 hours after dosing, mean ± SEM, pre-treatment subtracted) was 8057 ± 1566 pg/mL. The “Mean Concentration of IFN-α” value (IFN-α; QD schedule, Day 5, 100 mg/kg per dose as tosylate salt, 3 hours after dosing, mean ± SEM, pre-treatment subtracted) was 2166 ± 615 pg/mL, the “Mean Concentration of IFN-α” value (IFN-α; QD schedule, Day 7, 100 mg/kg per dose as tosylate salt, 3 hours after dosing, mean ± SEM, pre-treatment subtracted) was 151 ± 105 pg/mL and the “Mean Concentration of IFN-α” value (IFN-α; QOD schedule, Day 1, 100 mg/kg per dose as tosylate salt, 3 hours after dosing, mean ± SEM, pre-treatment subtracted) was 1293 ± 513 pg/mL. For the same molecule, the “Mean Concentration of IFN-α” value (IFN-α; QOD schedule, Day 3, 100 mg/kg per dose as tosylate salt, 3 hours after dosing, mean ± SEM, pre-treatment subtracted) was 1459 ± 634 pg/mL, the “Mean Concentration of IFN-α” value (IFN-α; QOD schedule, Day 5, 100 mg/kg per dose as tosylate salt, 3 hours after dosing, mean ± SEM, pre-treatment subtracted) was 1816 ± 1012 pg/mL and the “Mean Concentration of IFN-α” value (IFN-α; QOD schedule, Day 7, 100 mg/kg per dose as tosylate salt, 3 hours after dosing, mean ± SEM, pre-treatment subtracted) was 2375 ± 982 pg/mL. For the same molecule, the “IL-6 induction versus pre-treatment” value (IL-6; QD (D3) versus QOD (D5)) was “significantly induced (p<0.05) by the QD, but not by the QOD schedule”, the “Level of IL-6 expressed relative to IFN-α, QD compared to QOD” value (IL-6; pre-treatment subtracted, p<0.05) was “significantly higher” and the “TNF-α induction versus pre-treatment” value (TNF-α) was “significantly induced (p<0.05) by the QD, but not by the QOD schedule”. For the same molecule, the “Level of IL-12 expressed relative to IFN-α, QD compared to QOD” value (IL-12) was “significantly higher” and the “Level of MCP-1 expressed relative to IFN-α, QD compared to QOD” value (MCP-1) was “significantly higher”.
